Our source for the EC50 and Emax values is US20230000842A1, “METHODS OF TREATING CARTILAGE DISORDERS THROUGH INHIBITION OF CLK AND DYRK” (SAMUMED, LLC, priority 2019, published 2023).

The target of one assay is CLK3 kinase (Homo sapiens, UniProt P49761). Description: CLK3 kinase activity assay (Z-lyte FRET).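 Note: kinase activity read as coumarin/fluorescein emission ratio by FRET, unphosphorylated peptide as 0% and phosphorylated peptide as 100% control, values from non-linear regression of dose-response curves.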 It is filed as biochemical. Conditions: Z-lyte Ser/Thr 18 peptide, 156 μM ATP, 1 h at room temperature.
Chain of CLK3 kinase (P49761 whole entry): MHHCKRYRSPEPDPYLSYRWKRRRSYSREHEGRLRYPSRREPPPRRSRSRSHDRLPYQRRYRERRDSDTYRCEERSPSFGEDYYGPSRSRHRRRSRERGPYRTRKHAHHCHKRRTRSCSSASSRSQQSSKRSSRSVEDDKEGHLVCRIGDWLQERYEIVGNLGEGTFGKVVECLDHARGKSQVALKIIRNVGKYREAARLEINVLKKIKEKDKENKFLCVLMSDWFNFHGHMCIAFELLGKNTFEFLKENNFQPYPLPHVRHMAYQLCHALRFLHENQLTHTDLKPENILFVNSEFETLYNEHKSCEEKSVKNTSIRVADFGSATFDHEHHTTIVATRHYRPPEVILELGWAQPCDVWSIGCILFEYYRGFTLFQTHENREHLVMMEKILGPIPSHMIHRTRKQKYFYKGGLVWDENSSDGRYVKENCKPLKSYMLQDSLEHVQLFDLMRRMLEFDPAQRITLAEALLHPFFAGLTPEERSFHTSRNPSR
The target of another assay is CLK2 kinase (Homo sapiens, UniProt P49760). Description: CLK2 kinase activity assay (Z-lyte FRET).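 Note: FRET read-out as coumarin to fluorescein emission ratio, unphosphorylated peptide as 0% and phosphorylated peptide as 100% controls, duplicate reactions, non-linear regression fit of dose-response curves.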 The conditions noted are these: Z-lyte Ser/Thr 6 peptide, 60 μM ATP, 1 h at room temperature. It is filed as biochemical.
Chain of CLK2 kinase (P49760 whole entry): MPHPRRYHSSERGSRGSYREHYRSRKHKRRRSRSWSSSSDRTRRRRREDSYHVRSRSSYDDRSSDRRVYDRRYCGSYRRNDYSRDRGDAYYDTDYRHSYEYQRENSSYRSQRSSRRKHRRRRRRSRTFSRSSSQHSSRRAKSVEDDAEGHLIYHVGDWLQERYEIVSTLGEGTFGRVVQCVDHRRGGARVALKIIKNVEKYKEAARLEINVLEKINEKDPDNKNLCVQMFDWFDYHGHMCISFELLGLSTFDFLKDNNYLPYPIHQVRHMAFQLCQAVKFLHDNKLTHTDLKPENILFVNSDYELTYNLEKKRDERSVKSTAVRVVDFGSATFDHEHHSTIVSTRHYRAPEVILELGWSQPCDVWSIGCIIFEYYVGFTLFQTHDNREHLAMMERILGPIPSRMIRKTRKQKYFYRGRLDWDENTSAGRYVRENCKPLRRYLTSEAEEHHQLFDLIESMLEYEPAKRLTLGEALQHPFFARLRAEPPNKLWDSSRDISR
For assay [1], the system named is MMP-3 levels in supernatant of chondrocytes stimulated with IL1-β. Description: Chondrocyte protection assay compound screening (MMP-3 LANCE Ultra). The class given is cell-based, human. Conditions: Homo sapiens, Chondrocyte, IL1-β 10 ng/mL overnight, 11-point curves from 3 μM to 0.05 nM; for Emax: read-out: Maximum % Inhibition. The gist of the method: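 Primary human chondrocytes (passage 2–5) in differentiation medium were stimulated with 10 ng/mL IL1-β for an overnight incubation at 37 °C. MMP-3 in 1:7-diluted supernatant was read by TR-FRET immunoassay against a standard curve, normalised to IL1-β-stimulated wells; EC50 and maximum % inhibition came from nonlinear regression.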
Background: Time-resolved FRET reads energy transfer from a long-lived donor to a nearby acceptor.

The subject of assay [2] is Wnt pathway activity (SW480 colon carcinoma cells stably expressing the Sp5-Luc reporter). Description: Wnt pathway activity screening assay (Sp5-Luc reporter gene assay). Conditions: Homo sapiens, SW480, Table 4; SW480 cells stably expressing Sp5-Luc reporter, 10-point dose-response from 10 μM, 36 to 48 hours. (In general: A reporter such as luciferase makes a cellular process visible.)

Assay [3] deals with primary human mesenchymal stem cells (hMSCs). The assay is described as follows: Chondrogenesis screening using primary human mesenchymal stem cells. The class given is cell-based. The conditions noted are these: Homo sapiens, Mesenchymal stem cells, hMSC chondrogenesis; for EC50: concentration required to induce 50% levels of chondrogenesis with TGF-β3 as positive control, read-out: Conc (nM) of 50% TGF-β3 activity; for Emax: maximum activity relative to TGF-β3 (10 ng/mL) positive control, read-out: Max. Activity as % TGF-β3 activity. The gist of the method: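 Primary hMSCs at passage 3–6 were treated across compound concentrations, with TGF-β3 as positive control. Chondrogenic nodule area per well was normalized to 3 DMSO wells on the same plate (fold over DMSO, 2–3 replicates). EC50, maximum activity and the dose reaching it were derived.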

Description for CLK2 kinase: This is a non-radioactive assay using fluorescence resonance energy transfer (FRET) between coumarin and fluorescein to detect kinase activity which is represented as a ratio of coumarin emission/fluorescein emission.
The mixture was allowed to incubate with the representative compounds for one hour at room temperature. All reactions were performed in duplicate. Unphosphorylated (“0% Control”) and phosphorylated (“100% control”) forms of Ser/Thr 6 served as control reactions. Additionally, an 11-point dose-response curve of Staurosporine (1 μM top) was run to serve as a positive compound control.
After incubation, Development Reagent A was diluted in Development Buffer then added to the reaction and allowed to further incubate for one hour at room temperature.
Dose-response curves were generated and inhibitory concentration (IC50) values were calculated using non-linear regression curve fit in the Dotmatics' Studies Software (Bishops Stortford, UK).

Regarding `O=C1CCc2cccc(c2)-c2cncc3[nH]c(nc23)-c2n[nH]c3ccc(cc23)-c2cncc(c2)N1` [compound 619], the EC50 was 0.029 µM at CLK3 kinase; 0.002 µM on CLK2 kinase; not below 3 µM in assay [1]; 0.0518 µM in assay [2]; 50 nM in assay [3]. The Emax in assay [1] was determined as 71.5%; in assay [3], 225%.
For the compound `CCCC(=O)Nc1cncc(-c2ccc3[nH]nc(-c4nc5c(N6CCCCC6)cncc5[nH]4)c3c2)c1` [compound 208], the EC50 at CLK3 kinase was 0.058 µM; on CLK2 kinase, 0.004 µM; in assay [1] it was 0.0205 µM; in assay [2], 0.042 µM. Besides, the Emax in assay [1] came out at 39%; in assay [3], 77.3%.
Turning to `O=C(Nc1cc2cc(-c3cncc(NC4CCNC[C@@H]4F)n3)ccc2cn1)C1CC1` (stereo partly shown) [compound 603], the EC50 on CLK3 kinase was 0.011 µM; at CLK2 kinase it was 0.001 µM; in assay [1], not below 3 µM; in assay [2], 0.0095 µM; in assay [3] it was 2700 nM. Also, the Emax in assay [1] was 55.5%; in assay [3] it was 68%.
As for `Fc1cccc(-c2cccc3[nH]c(-c4n[nH]cc4/C=C/c4cncc(CN5CCCC5)c4)nc23)c1` [compound 26], the EC50 on CLK3 kinase is 0.492 µM; on CLK2 kinase, 0.001 µM; in assay [1], 0.0014 µM; in assay [2], 0.0821 µM; in assay [3] it was 2700 nM. Also, the Emax came to 64.6% in assay [1] and 81.7% in assay [3].
For `CN(C)Cc1cncc(-c2cnc3[nH]nc(-c4nc5c(-c6cccs6)cncc5[nH]4)c3c2)c1` [compound 260], the EC50 on CLK3 kinase is 0.128 µM; on CLK2 kinase, 0.001 µM; in assay [1], not below 3 µM; in assay [2], 0.048 µM; in assay [3] it was 30 nM. In addition, in assay [3], the Emax is 146%.
Regarding `O=C(CC1CCNCC1)Nc1cncc(-c2ccc3[nH]nc(-c4cc5c(N6CCCCC6)nccc5[nH]4)c3n2)c1` [compound 462], the EC50 at CLK3 kinase was 0.048 µM; on CLK2 kinase it was 0.002 µM; in assay [1] it was 1.47 µM; in assay [2], more than 10 µM. Moreover, the Emax worked out at 99.9% in assay [1] and 21.8% in assay [3].
In the case of `O=C(Nc1c[nH]nc1C(=O)Nc1ccc(N2CCCCC2)nc1)c1cncc(OC2CCNCC2)c1` [compound 13], the EC50 on CLK3 kinase was 3.5 µM; at CLK2 kinase it was 0.014 µM; in assay [1] it was not below 3 µM; in assay [2] it was 0.662 µM. In assay [1], the Emax was 71%.
For `O=C(Nc1cccnc1)c1n[nH]c2ncc(-c3cccnc3)cc12` [compound 61], in that order: 0.916 µM, 0.008 µM, 0.0022 µM, 0.795 µM and 69.2%.
For `COc1cncc(C(=O)Nc2c[nH]nc2C(=O)Nc2ccc(CN(C)C)cc2)c1` [compound 4], in that order: 6.61 µM, 0.057 µM, not below 3 µM, 0.123 µM and 99.9%.
In the case of `COc1ccc(NC(=O)c2n[nH]c3ccc(-c4cncc(CO)c4)cc23)cn1` [compound 67], the EC50 was 0.041 µM at CLK3 kinase, 0.001 µM at CLK2 kinase, not below 3 µM in assay [1] and 0.0966 µM in assay [2]. In assay [1], the Emax was found to be 48.7%.
`O=C(Nc1c[nH]nc1C(=O)Nc1cccnc1)c1cccnc1` [compound 1]: the EC50 at CLK3 kinase was 5.3 µM; at CLK2 kinase it was 0.023 µM; in assay [1] it was 0.0389 µM; in assay [2], 0.0205 µM. The Emax in assay [1] was 100%.
The matching figures for `COc1ccc(NC(=O)c2n[nH]cc2/C=C/c2cncc(CN3CCCCC3)c2)cn1` [compound 24]: 1.25 µM, 0.026 µM, not below 3 µM, 1.45 µM and 74.1%.
As to `Cc1n[nH]c2ccc(-c3cc(OC[C@H](N)Cc4ccccc4)cnn3)cc12` [compound 53], the EC50 on CLK3 kinase was 3.49 µM; on CLK2 kinase, 0.019 µM; in assay [1], not below 3 µM; in assay [2] it was 1.15 µM. The Emax in assay [1] turned out to be 74.9%.
Regarding `Cc1n[nH]c2ccc(-c3cncc(N4CCC[C@H](N)C4)n3)cc12` [compound 38], the EC50 on CLK3 kinase was 8.01 µM; at CLK2 kinase it was 0.035 µM; in assay [1], not below 3 µM; in assay [2], 1.43 µM. Moreover, the Emax in assay [1] worked out at 97.5%.
The matching figures for `CC(C)N1CCC(n2cc(C(=O)Nc3cc4cc(-c5cn(C)nn5)ccc4cn3)cn2)CC1` [compound 579]: 0.019 µM, 0.002 µM, 0.492 µM, 0.0327 µM and 91%.
For `Cc1ncc(-c2ccc3[nH]nc(-c4nc5c(-c6cc(F)cc(NCCN(C)C)c6)ccnc5[nH]4)c3n2)n1C` [compound 287], in that order: 0.044 µM, 0.004 µM, 0.0128 µM, 0.62 µM and 74.2%.
The matching figures for `CN1CCC(n2cc(C(=O)Nc3cc4cc(-c5cnc6cc[nH]c6c5)ccc4cn3)cn2)CC1` [compound 605]: 0.009 µM, 0.002 µM, not below 3 µM, 0.0268 µM and 59.9%.
Consider `NC(=O)c1ccc(NC(=O)c2n[nH]c3ccc(-c4cncc(CN5CCCCC5)c4)cc23)cn1` [compound 87], for which the EC50 at CLK3 kinase was found to be 0.011 µM; on CLK2 kinase, 0.001 µM; in assay [1] it was 2.22 µM; in assay [2], 0.013 µM. In assay [1], the Emax is 100%.
For `CCC1(N)CN(c2cncc(-c3ccc4[nH]nc(C)c4c3)n2)C1` [compound 37], in that order: 5.5 µM, 0.043 µM, not below 3 µM, 1.73 µM and 55.1%.
With `Cc1n[nH]c2ccc(-c3cncc(OC[C@@H]4Cc5ccccc5CN4)n3)cc12` [compound 50], the EC50 was 5.73 µM on CLK3 kinase, 0.027 µM on CLK2 kinase, not below 3 µM in assay [1] and 2.81 µM in assay [2]. In addition, the Emax in assay [1] is 44.4%.
For `O=C(Nc1ccc(CN2CCCC2)cc1)c1n[nH]c2ccc(-c3cccnc3F)cc12` [compound 65], in that order: 0.047 µM, 0.001 µM, not below 3 µM, 0.196 µM and 98.1%.
In the case of `O=C(Nc1ccc(N2CCNCC2)nc1)c1n[nH]cc1/C=C/c1cccnc1` [compound 20], the EC50 on CLK3 kinase came to 0.563 µM; at CLK2 kinase it was 0.005 µM; in assay [1], 0.0002 µM; in assay [2], 1.65 µM. Moreover, the Emax in assay [1] worked out at 72.6%.
The matching figures for `Cc1n[nH]c2ccc(-c3cncc(OCC4(F)CNC4)n3)cc12` [compound 49]: 2.2 µM, 0.006 µM, 0.0035 µM, 3.25 µM and 66.1%.
On to `O=C(Nc1ccc(C(=O)N2CCCC2)nc1)c1n[nH]c2ccc(-c3cncc(CN4CCCCC4)c3)cc12` [compound 88], for which the EC50 at CLK3 kinase is 0.012 µM; on CLK2 kinase it was 0.001 µM; in assay [1] it was not below 3 µM; in assay [2], 0.03 µM. In assay [1], the Emax was determined as 100%.
For `CN1CCC(Oc2ncc(NC(=O)c3n[nH]c4cc(F)c(-c5cnn(C)c5)cc34)cc2F)CC1` [compound 111], in that order: 0.089 µM, 0.001 µM, 0.0126 µM, 1.15 µM and 76.2%.
For `FC1(F)CCN(Cc2cncc(-c3cnc4[nH]nc(-c5nc6c(-c7ccoc7)nccc6[nH]5)c4c3)c2)C1` [compound 241], in that order: 0.034 µM, 0.004 µM, 0.0001 µM, 0.162 µM and 87.1%.
The matching figures for `Cc1cn(-c2cncc3[nH]c(-c4n[nH]c5ccc(-c6cncc(NC(=O)CC(C)C)c6)cc45)nc23)cn1` [compound 225]: 0.016 µM, 0.002 µM, 0.845 µM, 4.57 µM and 89.2%.
For `O=C(Nc1ccc(OC(CO)CO)nc1)c1n[nH]c2ccc(-c3cncc(CN4CCCCC4)c3)cc12` [compound 83], the EC50 is 0.073 µM at CLK3 kinase, 0.005 µM on CLK2 kinase, 0.303 µM in assay [1] and 0.5 µM in assay [2].
